# Data from PubChem BioAssay (NCI).
#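 96-well plates; 48 h exposure; 5 concentrations. Endpoints by linear interpolation between flanking doses. Not reached: highest tested concentration assigned. TGI denotes the concentration required for complete inhibition of growth.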
# Assays:
# Assay in all cases: NCI tumour cell line growth inhibition, 48 h
# [1] = system: SK-MEL-28 melanoma
# [2] = system: NCI-H522 lung
# [3] = system: 786-0 renal
# [4] = system: M14 melanoma
# [5] = system: HCC-2998 colon
# [6] = system: MDA-MB-231 breast
# [7] = system: HOP-62 NSCLC
# [8] = system: HT29 colon
# [9] = system: SF-539 CNS
# [10] = system: HCT-15 colon
# [11] = system: BT-549 breast
# [12] = system: MALME-3M melanoma
# [13] = system: MCF7 breast
# [14] = system: SK-MEL-5 melanoma
# [15] = system: SW-620 colon
# [16] = system: NCI-H460 lung
# [17] = system: SK-MEL-2 melanoma
# [18] = system: KM12 colon
# [19] = system: LOX IMVI melanoma
# [20] = system: SNB-75 CNS
# [21] = system: DU-145 prostate
# [22] = system: K-562 leukemia
# [23] = system: TK-10 renal
# [24] = system: U251 CNS
# [25] = system: RPMI-8226 leukemia
# [26] = system: UO-31 renal
# [27] = system: A498 renal
# [28] = system: OVCAR-4 ovarian
# [29] = system: OVCAR-5 ovarian
# [30] = system: IGROV1 ovarian
# [31] = system: RXF 393 renal
# [32] = system: SR leukemia
# [33] = system: SF-268 CNS
# [34] = system: OVCAR-8 ovarian
# [35] = system: NCI-H23 lung
# [36] = system: SNB-19 CNS
# [37] = system: MDA-N
# [38] = system: OVCAR-3 ovarian
# [39] = system: T-47D breast
# [40] = system: SN12C renal
# [41] = system: ACHN renal
# [42] = system: CCRF-CEM leukemia
# [43] = system: HCT-116 colon
# [44] = system: COLO 205 colon
# [45] = system: MDA-MB-435
# [46] = system: MOLT-4 leukemia
# [47] = system: UACC-257 melanoma
# [48] = system: SK-OV-3 ovarian
# [49] = system: UACC-62 melanoma
# [50] = system: HS 578T breast
# [51] = system: CAKI-1 renal
# [52] = system: SF-295 CNS
# [53] = system: NCI/ADR-RES ovarian
# [54] = system: A549 NSCLC
# [55] = system: EKVX NSCLC
# [56] = system: PC-3 prostate
# [57] = system: HOP-92 NSCLC
# [58] = system: NCI-H226 lung
# [59] = system: HL-60(TB) leukemia
structure (smiles),measurement,setting,value
O=C(/C=C/c1ccc(O)c(O)c1)OCCCOC(=O)/C=C/c1ccc(O)c(O)c1,TGI,[1],> 100 µM
same,TGI,[2],40.6 µM
same,TGI,[3],> 100 µM
same,TGI,[4],65.8 µM
same,TGI,[5],> 100 µM
same,TGI,[6],> 100 µM
same,TGI,[7],67.9 µM
same,TGI,[8],> 100 µM
same,TGI,[9],> 100 µM
same,TGI,[10],> 100 µM
same,TGI,[11],> 100 µM
same,TGI,[12],> 100 µM
same,TGI,[13],> 100 µM
same,TGI,[14],32.9 µM
same,TGI,[15],> 100 µM
same,TGI,[16],> 100 µM
same,TGI,[17],> 100 µM
same,TGI,[18],> 100 µM
same,TGI,[19],69.6 µM
same,TGI,[20],> 100 µM
same,TGI,[21],> 100 µM
same,TGI,[22],> 100 µM
same,TGI,[23],> 100 µM
same,TGI,[24],> 100 µM
same,TGI,[25],> 100 µM
same,TGI,[26],> 100 µM
same,TGI,[27],> 100 µM
same,TGI,[28],> 100 µM
same,TGI,[29],> 100 µM
same,TGI,[30],> 100 µM
same,TGI,[31],79.6 µM
same,TGI,[32],> 100 µM
same,TGI,[33],> 100 µM
same,TGI,[34],> 100 µM
same,TGI,[35],78 µM
same,TGI,[36],> 100 µM
same,TGI,[37],80.1 µM
same,TGI,[38],32.8 µM
same,TGI,[39],> 100 µM
same,TGI,[40],> 100 µM
same,TGI,[41],> 100 µM
same,TGI,[42],> 100 µM
same,TGI,[43],> 100 µM
same,TGI,[44],> 100 µM
same,TGI,[45],> 100 µM
same,TGI,[46],> 100 µM
same,TGI,[47],> 100 µM
same,TGI,[48],> 100 µM
same,TGI,[49],49.4 µM
same,TGI,[50],> 100 µM
same,TGI,[51],> 100 µM
same,TGI,[52],53.6 µM
same,TGI,[53],> 100 µM
same,TGI,[54],> 100 µM
same,TGI,[55],> 100 µM
same,TGI,[56],> 100 µM
same,TGI,[57],84.4 µM
Nc1ncnc2c1ncc(=O)n2C1CC(O)C(CO)O1 (stereo not given),TGI,[1],> 100 µM
same,TGI,[2],> 100 µM
same,TGI,[58],> 100 µM
same,TGI,[3],> 100 µM
same,TGI,[4],> 100 µM
same,TGI,[5],> 100 µM
same,TGI,[6],> 100 µM
same,TGI,[7],> 100 µM
same,TGI,[8],> 100 µM
same,TGI,[9],> 100 µM
same,TGI,[10],> 100 µM
same,TGI,[11],> 100 µM
same,TGI,[12],> 100 µM
same,TGI,[13],> 100 µM
same,TGI,[14],> 100 µM
same,TGI,[15],> 100 µM
same,TGI,[16],> 100 µM
same,TGI,[17],> 100 µM
same,TGI,[18],> 100 µM
same,TGI,[19],> 100 µM
same,TGI,[20],> 100 µM
same,TGI,[21],> 100 µM
same,TGI,[22],> 100 µM
same,TGI,[23],> 100 µM
same,TGI,[24],> 100 µM
same,TGI,[25],> 100 µM
same,TGI,[26],> 100 µM
same,TGI,[27],> 100 µM
same,TGI,[28],> 100 µM
same,TGI,[29],> 100 µM
same,TGI,[30],> 100 µM
same,TGI,[32],> 100 µM
same,TGI,[33],> 100 µM
same,TGI,[34],> 100 µM
same,TGI,[35],> 100 µM
same,TGI,[36],> 100 µM
same,TGI,[37],> 100 µM
same,TGI,[38],> 100 µM
same,TGI,[39],> 100 µM
same,TGI,[40],> 100 µM
same,TGI,[41],> 100 µM
same,TGI,[42],> 100 µM
same,TGI,[43],> 100 µM
same,TGI,[44],> 100 µM
same,TGI,[45],> 100 µM
same,TGI,[46],> 100 µM
same,TGI,[47],> 100 µM
same,TGI,[48],> 100 µM
same,TGI,[49],> 100 µM
same,TGI,[50],> 100 µM
same,TGI,[51],> 100 µM
same,TGI,[52],> 100 µM
same,TGI,[53],> 100 µM
same,TGI,[54],> 100 µM
same,TGI,[55],> 100 µM
same,TGI,[56],> 100 µM
same,TGI,[57],> 100 µM
CCOC(=O)CCc1cccc2c1oc1c(CCNC(=O)OCC3c4ccccc4-c4ccccc43)cccc12,TGI,[1],> 100 µM
same,TGI,[2],> 100 µM
same,TGI,[58],> 100 µM
same,TGI,[3],> 100 µM
same,TGI,[4],> 100 µM
same,TGI,[5],> 100 µM
same,TGI,[6],> 100 µM
same,TGI,[7],52.3 µM
same,TGI,[10],> 100 µM
same,TGI,[11],68.4 µM
same,TGI,[12],58.4 µM
same,TGI,[13],> 100 µM
same,TGI,[14],> 100 µM
same,TGI,[15],> 100 µM
same,TGI,[59],> 100 µM
same,TGI,[16],> 100 µM
same,TGI,[17],> 100 µM
same,TGI,[18],> 100 µM
same,TGI,[19],> 100 µM
same,TGI,[20],42.1 µM
same,TGI,[21],> 100 µM
same,TGI,[22],> 100 µM
same,TGI,[23],> 100 µM
same,TGI,[24],> 100 µM
same,TGI,[25],> 100 µM
same,TGI,[26],> 100 µM
same,TGI,[27],> 100 µM
same,TGI,[28],> 100 µM
same,TGI,[29],> 100 µM
same,TGI,[30],> 100 µM
same,TGI,[32],> 100 µM
same,TGI,[33],70.3 µM
same,TGI,[34],> 100 µM
same,TGI,[35],> 100 µM
same,TGI,[36],70.6 µM
same,TGI,[37],> 100 µM
same,TGI,[38],> 100 µM
same,TGI,[39],81.1 µM
same,TGI,[40],> 100 µM
same,TGI,[41],> 100 µM
same,TGI,[42],> 100 µM
same,TGI,[43],> 100 µM
same,TGI,[44],> 100 µM
same,TGI,[45],> 100 µM
same,TGI,[46],> 100 µM
same,TGI,[47],> 100 µM
same,TGI,[48],> 100 µM
same,TGI,[49],63.6 µM
same,TGI,[50],16.5 µM
same,TGI,[51],45.4 µM
same,TGI,[52],> 100 µM
same,TGI,[53],> 100 µM
same,TGI,[54],> 100 µM
same,TGI,[55],> 100 µM
same,TGI,[56],> 100 µM
same,TGI,[57],85.6 µM
